Assay [1] deals with T-Rex 293 cell line SC3 cells having increased expression of androgen receptor protein. Nature of the assay: Cellular growth inhibition, T-Rex 293 SC3 cells with increased androgen receptor expression (doxycycline), CellTiter-Glo. The format is cell-based. The note with it: T-Rex 293 SC3 cells with increased androgen receptor expression (exposed to 10 ng/mL doxycycline), 72 hours, CellTiter-Glo; read-out: GI50. Summed up: (§1)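 SC3, a T-Rex 293 clone with doxycycline-inducible wild-type androgen receptor, was seeded in phenol red-free DMEM with 10% charcoal-dextran FBS, with or without 10 ng/mL doxycycline. Compound added at 24 h (0.5% DMSO) for 72 h at 37° C. CellTiter-Glo 2.0 luminescence; GI50 from four-parameter fit.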
(In general: In ATP-based viability assays light output follows the ATP content of the culture.)

In assay [2] the test system is T-Rex 293 cell line SC3 cells lacking increased expression of androgen receptor protein. In words: Cellular growth inhibition, T-Rex 293 SC3 cells lacking increased androgen receptor expression (no doxycycline), CellTiter-Glo. The format is cell-based. The note with it: T-Rex 293 SC3 cells lacking increased androgen receptor expression (not exposed to doxycycline), 72 hours, CellTiter-Glo; read-out: GI50. In a few lines:
as §1

Another assay deals with VCaP cells. Nature of the assay: Cellular growth inhibition assay for VCaP cells, CellTiter-Glo. The assay is classed as cell-based, human. The note with it: VCaP cells, 72 hours, CellTiter-Glo, read-out: GI50. In a few lines: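 GI50 values come from four-parameter curve fits of luminescence data normalized to a zero baseline. Compound, in medium with 0.5% DMSO, was added one day after plating and left for 72 h before CellTiter-Glo 2.0 addition.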

The next assay relates to T47D cells. Nature of the assay: Cellular growth inhibition assay for T47D cells, CellTiter-Glo. The format is cell-based, human. The note with it: 72 hours treatment, CellTiter-Glo 2.0. Summed up: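 Growth inhibition as GI50, fitted with four parameters to CellTiter-Glo luminescence after 72 h of compound exposure (0.5% DMSO). Cells were T47D, grown in insulin-supplemented (0.2 units/mL) DMEM with 10% FBS and treated one day post-seeding.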

Assay [3] has as its target progesterone receptor ligand binding domain (LBD) (Homo sapiens (Human), UniProt P06401). Nature of the assay: FP assay for binding affinity to progesterone receptor (PolarScreen Progesterone Receptor Competitor Assay). The note with it: GST-tagged PR LBD, Fluormone tracer, fluorescence polarization, 2 hours at room temperature. As for the experimental part: Compounds were tested using the PolarScreen™ Progesterone Receptor Competitor Assay Kit (Life Technologies Cat #A15905 or a15906), as per the manufacturer's instructions. Briefly, GST-tagged PR LBD, Fluormone tracer, and compound were mixed and incubated for 2 hours at room temperature in the dark. Following incubation, the plates were spun at 3000×g for 30 seconds, then sealed with an optical adhesive cover, and fluorescence polarization was measured using appropriate excitation and emission filters with an EnVision Plate Reader (Perkin Elmer). Compound concentration vs. mP value were plotted in Prism (GraphPad). A four-parameter non-linear regression curve fit was applied to dose-response data to determine the half-maximal inhibitory concentration (IC50) for each test compound.
Background: Fluorescence polarisation rises when a labelled molecule tumbles more slowly, as on binding a larger partner.

Assay [4] deals with T-Rex 293 cell line SC cells lacking increased expression of progesterone receptor isoform B protein. In words: Cellular growth inhibition, T-Rex 293 SC cells lacking increased progesterone receptor isoform B expression (no doxycycline), CellTiter-Glo. The format is cell-based. The note with it: T-Rex 293 SC cells not exposed to doxycycline, 72 hours. As for the experimental part:
(§2) The following types of cells were prepared for this experiment: (i) a T-Rex 293 cell line having increased expression of progesterone receptor isoform B protein due to exposure to doxycycline and (ii) a T-Rex 293 cell line lacking increased expression of progesterone receptor isoform B protein. Ability of the test compounds to inhibit proliferation of the foregoing cell types was evaluated according to the procedures set forth below.
(§3) The doxycycline-inducible progesterone receptor isoform B protein expressing cell line was established using the following protocol: T-Rex 293 cells were purchased from Invitrogen (Cat #R71007) and transfected using Lipofectamine 2000 with the wild-type progesterone receptor B protein sequence cloned into the pcDNA4/TO vector. Transfected cells were selected using 400 μg/mL Zeocin (Invitrogen Cat #R25001). Following selection, single clones were raised and maintained in Dulbecco's Modified Eagle Medium (DMEM) supplemented with 10% w/w Tetracycline-free fetal bovine serum (FBS) and 250 μg/mL Zeocin. Clones were analyzed for expression of progesterone receptor isoform B protein in the presence and absence of 10 ng/ml doxycycline (Sigma Cat #D9891), and a single doxycycline-inducible clone (hereinafter “SC”) was selected for use in downstream assays.
(§4) The SC cells were seeded on poly-D-lysine coated, black clear-bottom 384-well plates at 2500/well, in 25 μL Phenol Red Free Dulbecco's Modified Eagle Medium (DMEM) supplemented with 10% w/w charcoal-dextran treated fetal bovine serum (FBS) and 1% w/w pen-strep, with or without 10 ng/mL doxycycline. Pen-Strep is a commercially available mixture of penicillin G and streptomycin, which is used in mammalian cell culture media to prevent bacterial contamination. Phenol Red Free Dulbecco's Modified Eagle Medium (DMEM) supplemented with 10% w/w charcoal-dextran treated fetal bovine serum (FBS) and 1% w/w pen-strep, with or without 10 ng/mL doxycycline is herein referred to as Treatment Medium. Following seeding of cells in the plates, the plates were spun at 300×g for 30 seconds, then equilibrated to room temperature for 30 minutes, and then deposited in a humidified tissue culture incubator maintained at 37° C. with 5% CO2.
(§5) At 24 hours after seeding of the cells, dilutions of test compound were prepared in DMSO and dissolved in Treatment Medium, to achieve a final DMSO concentration of 0.5% w/w, thereby providing the Test Compound Solution. A 25 μL aliquot of the Test Compound Solution was added to cells in the well plates. An equal volume of a solution containing DMSO and Treatment Medium was used as a negative control. Following treatment of cells with Test Compound Solution or said equal volume of a solution containing DMSO and Treatment Medium, the plates were spun at 300×g for 30 seconds, and then left in an incubator for 72 hours.
(§6) At the end of the treatment duration, cell viability was quantified with CellTiter-Glo 2.0 reagent (Promega Cat #G9243). For this purpose, plates were equilibrated to room temperature for 30 minutes, and then 25 μL of CellTiter-Glo 2.0 reagent was added to cells in the plate wells. Plates were then agitated on a shaker for two minutes at 500 rpm and subsequently incubated at room temperature for 10 minutes. Following incubation, the plates were spun at 3000×g for 30 seconds, then sealed with an optical adhesive cover, and luminescence readings were measured with an EnVision Plate Reader (Perkin Elmer).
(§7) Data was normalized using zero luminescence for baseline. A four-parameter non-linear regression curve fit was applied to dose-response data in GraphPad Prism data analysis software to determine the half-maximal growth inhibitory concentration (GI50) for each test compound.

Assay [5] concerns T-Rex 293 cell line SC cells having increased expression of progesterone receptor isoform B protein. In words: Cellular growth inhibition, T-Rex 293 SC cells with increased progesterone receptor isoform B expression (doxycycline), CellTiter-Glo. The format is cell-based. The note with it: progesterone receptor isoform B induced with 10 ng/mL doxycycline, 72 hours. As for the experimental part:
as §2, §3, §4, §5, §6, §7

The structures appear in SMILES notation. Read-outs that look alike come from different tables or passages of the source.

Drawing on US20250388575A1, “HETEROBIFUNCTIONAL COMPOUNDS AND METHODS OF TREATING DISEASE” (Halda Therapeutics OpCo, Inc., priority 2022, published 2025), this text covers GI50 and IC50 for 11 molecules.

By GI50 is commonly meant the concentration giving 50% growth inhibition. The term IC50 denotes the concentration needed to halve the response being measured. The low end stands for higher potency, the high end for lower potency.

Sequence of progesterone receptor ligand binding domain (LBD) (P06401 679-913): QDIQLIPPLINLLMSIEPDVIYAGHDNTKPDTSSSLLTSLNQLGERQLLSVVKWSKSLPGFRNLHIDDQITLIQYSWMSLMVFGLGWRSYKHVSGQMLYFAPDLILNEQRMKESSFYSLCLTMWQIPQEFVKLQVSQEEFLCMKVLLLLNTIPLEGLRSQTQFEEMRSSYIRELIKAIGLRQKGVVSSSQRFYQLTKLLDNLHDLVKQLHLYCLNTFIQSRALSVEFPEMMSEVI

For `Cn1cc(-c2cc(C(C)(C)O)ccc2Oc2ccc(CCOC3CCN(c4ccc(C(=O)N[C@H]5CC[C@H](Oc6ccc(C#N)c(Cl)c6)CC5)nn4)CC3)cc2F)c2cc[nH]c2c1=O` [I-106], the GI50 in assay [1] is under 500 nM; in assay [2], under 500 nM; in the assay with VCaP cells (Homo sapiens), 500 to 1500 nM; in the assay on T47D cells (Homo sapiens) it was under 500 nM. In addition, the IC50 in assay [3] fell in the range of 50 to 500 nM.

For `Cn1cc(-c2cc(S(=O)(=O)CCCCCN3CCN(c4ccc(C(=O)N[C@H]5CC[C@H](Oc6ccc(C#N)c(Cl)c6)CC5)nn4)CC3)ccc2Oc2ccc(F)cc2F)c2cc[nH]c2c1=O` [I-94], the GI50 in assay [1] was under 500 nM; in assay [2], over 3000 nM; in the assay on VCaP cells it was under 500 nM; in the assay on T47D cells, 500 to 1500 nM. The same molecule showed an IC50 in assay [3] of 50 to 500 nM.

With `Cn1cc(-c2cc(C(C)(C)O)ccc2Oc2ccc(OCC3CCN(c4ccc(C(=O)NC5CCC(Oc6ccc(C#N)c(Cl)c6)CC5)nn4)CC3)cc2)ccc1=O` (centres unmarked) [I-235, N-[4-(3-chloro-4-cyano-phenoxy)cyclohexyl]-6-[4-[[4-[4-(1-hydroxy-1-methyl-ethyl)-2-(1-methyl-6-oxo-3-pyridyl)phenoxy]phenoxy]methyl]-1-piperidyl]pyridazine-3-carboxamide], the GI50 in assay [1] is under 500 nM; in assay [2], over 3000 nM; in the assay with VCaP cells (Homo sapiens), under 500 nM; in the assay on T47D cells (Homo sapiens), 500 to 1500 nM. For the same molecule, the IC50 in assay [3] is 50 to 500 nM.

In the case of `CCS(=O)(=O)Nc1ccc(Oc2cccc(N3CC(OC4CCN(c5ccc(C(=O)N[C@H]6CC[C@H](Oc7ccc(C#N)c(Cl)c7)CC6)nn5)CC4)C3)c2F)c(-c2cn(C)c(=O)c3[nH]ccc23)c1` [I-25], the 50% growth inhibitory concentration (GI50) in assay [4] is under 500 nM; in assay [1], under 500 nM; in assay [2], over 3000 nM; in the assay on VCaP cells (Homo sapiens), under 500 nM; in the assay on T47D cells (Homo sapiens), under 500 nM; in assay [5], under 500 nM.

For the molecule `CN(CCc1ccc(Oc2ccc(C(C)(C)O)cc2-c2cn(C)c(=O)c3[nH]ccc23)cc1)c1ccc(C(=O)NC2CCC(Oc3ccc(C#N)c(Cl)c3)CC2)nn1` (centres unmarked) [I-100, N-[4-(3-chloro-4-cyano-phenoxy)cyclohexyl]-6-[2-[4-[4-(1-hydroxy-1-methyl-ethyl)-2-(6-methyl-7-oxo-1H-pyrrolo[2,3-c]pyridin-4-yl)phenoxy]phenyl]ethyl-methyl-amino]pyridazine-3-carboxamide], the GI50 (in assay [4]; in assay [1]; in assay [2]; in the assay with VCaP cells (Homo sapiens); in the assay with T47D cells (Homo sapiens); in assay [5]) was under 500 nM in each case.

On to `Cn1cc(-c2cc(C(C)(C)O)ccc2Oc2ccc(OCCN3CCN(c4ccc(C(=O)N[C@H]5CC[C@H](Oc6ccc(C#N)c(Cl)c6)CC5)nn4)CC3)cc2)c2cc[nH]c2c1=O` [I-97], for which the GI50 (in assay [4]; in assay [1]; in assay [2]; in the assay on VCaP cells (Homo sapiens); with T47D cells (Homo sapiens); in assay [5]) was under 500 nM throughout.

On to `CCS(=O)(=O)Nc1ccc(Oc2cccc(OCCOCCOCCOC3CCN(c4ccc(C(=O)N[C@H]5CC[C@H](Oc6ccc(C#N)c(Cl)c6)CC5)nn4)CC3)c2)c(-c2cn(C)c(=O)c3[nH]ccc23)c1` [I-2, N-[4-(3-chloro-4-cyano-phenoxy)cyclohexyl]-6-[4-[2-[2-[2-[3-[4-(ethylsulfonylamino)-2-(6-methyl-7-oxo-1H-pyrrolo[2,3-c]pyridin-4-yl)phenoxy]phenoxy]ethoxy]ethoxy]ethoxy]-1-piperidyl]pyridazine-3-carboxamide], for which the GI50 in assay [4] is under 500 nM; in assay [1] it was under 500 nM; in assay [2], 500 to 1500 nM; with VCaP cells (Homo sapiens), under 500 nM; with T47D cells (Homo sapiens), under 500 nM; in assay [5], under 500 nM.

As for `Cn1cc(-c2cc(C(C)(C)O)ccc2Oc2cc(F)c(CCOC3CCN(c4ccc(C(=O)N[C@H]5CC[C@H](Oc6ccc(C#N)c(Cl)c6)CC5)nn4)CC3)cc2F)c2cc[nH]c2c1=O` [I-107], the GI50 (in assay [1]; in assay [2]; in the assay with VCaP cells (Homo sapiens); in the assay with T47D cells (Homo sapiens)) was under 500 nM each time. This molecule came in with an IC50 in assay [3] of 50 to 500 nM.

In the case of `CCS(=O)(=O)c1ccc(Oc2cccc(OCCN3CCN(c4ccc(C(=O)NC5CCC(Oc6ccc(C#N)c(Cl)c6)CC5)nn4)CC3)c2F)c(-c2cn(C)c(=O)c3[nH]ccc23)c1` (centres unmarked) [I-40, N-[4-(3-chloro-4-cyano-phenoxy)cyclohexyl]-6-[4-[2-[3-[4-ethylsulfonyl-2-(6-methyl-7-oxo-1H-pyrrolo[2,3-c]pyridin-4-yl)phenoxy]-2-fluoro-phenoxy]ethyl]piperazin-1-yl]pyridazine-3-carboxamide], the 50% growth inhibitory concentration (GI50) (in assay [4]; in assay [1]; in assay [2]; in the assay on VCaP cells (Homo sapiens); in the assay on T47D cells (Homo sapiens); in assay [5]) was under 500 nM each time.

As to `CN(c1ccc(Oc2ccc(C(C)(C)O)cc2-c2cn(C)c(=O)c3[nH]ccc23)cc1)C1CN(c2ccc(C(=O)N[C@H]3CC[C@H](Oc4ccc(C#N)c(Cl)c4)CC3)nn2)C1` [I-138], the GI50 (in assay [4]; in assay [1]; in assay [2]; in the assay on VCaP cells (Homo sapiens); with T47D cells (Homo sapiens); in assay [5]) was under 500 nM throughout.

Regarding `Cn1cc(-c2cc(C(C)(C)O)ccc2Oc2ccc(N3CC(C4CCN(c5ccc(C(=O)N[C@H]6CC[C@H](Oc7ccc(C#N)c(Cl)c7)CC6)nn5)CC4)C3)cc2)c2cc[nH]c2c1=O` [I-148], the concentration for 50% growth inhibition (GI50) was 500 to 1500 nM in assay [4]; under 500 nM in assay [1]; over 3000 nM in assay [2]; under 500 nM in the assay on VCaP cells; under 500 nM in the assay on T47D cells; under 500 nM in assay [5].
